Assay results taken from patent US20200060276A1, “THIAZOLE COMPOUND AND HERBICIDE” (OAT Agrio Co., Ltd., priority 2017, published 2020).

How the values were obtained:
Type in all cases: in vivo
Scirpus juncoides = test: Test for Herbicidal Effect in Flooding Treatment (#1), SCIJU; settings: flooding treatment at seeding, dose 2 kg/ha, visual observation on day 21
Summary of the method: (§1)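 Sieved soil in cups was flooded and left 24 h before weed seeds were sown. Compounds in acetone, diluted with Tween 80-containing water, were dropped over the whole surface at 2 kg/ha. After 21 days in a glasshouse, growth inhibition was scored visually from 0 (<10%) to 5 (≥90% or complete withering).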

[1] = system: Echinochloa crus-galli (L.) P. Beauv. var. formosensis Ohwi; test: Test for Herbicidal Effect in Flooding Treatment (#1), ECHDG; settings: flooding treatment at seeding, dose 2 kg/ha, visual observation on day 21
Summary of the method: as §1

Cyperus microiria = test: Test for Herbicidal Effect in Flooding Treatment (#1), CYMIC; settings: flooding treatment at seeding, dose 2 kg/ha, visual observation on day 21
Procedure: (#1) Test for Herbicidal Effect in Flooding Treatment: Styrol cups each having an opening diameter of 8 cm (about 52 cm^2) were respectively filled with soil (45 ml) which had been passed through a sieve (2 mm). Water (about 115 ml) was mixed with the soil such that the soil was flooded. After the soil stood still for 24 hours, Monochoria vaginalis, Echinochloa crus-galli (L.) P. Beauv. var. formosensis Ohwi, Cyperus difformis (umbrella sedge), and Scirpus juncoides were seeded. Each of the compounds of the present invention was dissolved in acetone, and the obtained product was then diluted with water containing Tween 80®. Each of the resultant chemical solutions was dropped on the entire surface of an associated one of treatment sections, so that each section was treated with 1 ml of the respective chemical solution (a dose of 2 kg/ha). After the treatment, the plants were grown in a glasshouse. On day 21, a survey was conducted on the herbicidal activity by visual observation, and evaluation was made according to the following criteria. 0: Growth inhibition effect is less than 10%. 1: Growth inhibition effect is equal to or greater than 10%, and less than 30%. 2; Growth inhibition effect is equal to or greater than 30%, and less than 50%. 3: Growth inhibition effect equal to or greater than 50%, and less than 70%. 4: Growth inhibition effect is equal to or greater than 70%, and less than 90%. 5: Growth inhibition effect is equal to or greater than 90%, or complete withering is achieved. ECHDG=Echinochloa crus-galli (L.) P. Beauv. var. formosensis Ohwi, MONVA=Monochoria vaginalis, SCIJU=Scirpus juncoides, CYMIC=Cyperus microiria.

[2] = system: Echinochloa crus-galli (L.) P. Beauv. var. formosensis Ohwi; test: Test for Herbicidal Effect in Flooding Treatment (#2), ECHDG at 2-2.5 leaf stage; settings: flooding treatment at 2-2.5 leaf stage, dose 0.2 kg/ha, visual observation on day 21
Summary of the method: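 Flooded muddy soil was seeded with the weed, and at 2–2.5 leaf stage compound in acetone/Tween 80 water was dropped on the water surface at 0.2 kg/ha. Plants were kept in a glasshouse and scored visually on day 21 from 0 (<10% growth inhibition) to 5 (≥90% or complete withering).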

Monochoria vaginalis = test: Test for Herbicidal Effect in Flooding Treatment (#1), MONVA; settings: flooding treatment at seeding, dose 2 kg/ha, visual observation on day 21
Summary of the method: as §1

Row | Compound | SCIJU #1 herbicidal effect (growth inhibition grade) (Scirpus juncoides) | ECHDG #1 herbicidal effect (growth inhibition grade) [1] | CYMIC #1 herbicidal effect (growth inhibition grade) (Cyperus microiria) | ECHDG (2-2.5L) #2 herbicidal effect (growth inhibition grade) [2] | MONVA #1 herbicidal effect (growth inhibition grade) (Monochoria vaginalis)
1 | COc1cccc(OC)c1CS(=O)(=O)c1ncc(Cl)s1 [Compound 1C-127] | 5 (Growth inhibition effect is equal to or greater than 90%, or complete withering is achieved) | 5 (Growth inhibition effect is equal to or greater than 90%, or complete withering is achieved) | 5 (Growth inhibition effect is equal to or greater than 90%, or complete withering is achieved) | – | –
2 | [2H]C([2H])(c1c(Cl)ccc(OC)c1Cl)S(=O)(=O)c1ncc(Cl)s1 [Compound 1C-137] | 5 (Growth inhibition effect is equal to or greater than 90%, or complete withering is achieved) | 5 (Growth inhibition effect is equal to or greater than 90%, or complete withering is achieved) | – | 5 (Growth inhibition effect is equal to or greater than 90%, or complete withering is achieved) | 5 (Growth inhibition effect is equal to or greater than 90%, or complete withering is achieved)
3 | CCOc1ccc(Cl)cc1C(F)(F)S(=O)(=O)c1ncc(Cl)s1 [Compound 1C-138] | 5 (Growth inhibition effect is equal to or greater than 90%, or complete withering is achieved) | 5 (Growth inhibition effect is equal to or greater than 90%, or complete withering is achieved) | – | 3 (Growth inhibition effect equal to or greater than 50%, and less than 70%) | 5 (Growth inhibition effect is equal to or greater than 90%, or complete withering is achieved)
4 | CC(C)(c1c(F)cccc1OCC(F)F)S(=O)(=O)c1ncc(Cl)s1 [Compound 1C-143] | 5 (Growth inhibition effect is equal to or greater than 90%, or complete withering is achieved) | 5 (Growth inhibition effect is equal to or greater than 90%, or complete withering is achieved) | – | 4 (Growth inhibition effect is equal to or greater than 70%, and less than 90%) | 5 (Growth inhibition effect is equal to or greater than 90%, or complete withering is achieved)
5 | CC(=O)C(C(C)=O)(c1c(F)cccc1OC(F)F)S(=O)(=O)c1ncc(Cl)s1 [Compound 1C-147] | 5 (Growth inhibition effect is equal to or greater than 90%, or complete withering is achieved) | 5 (Growth inhibition effect is equal to or greater than 90%, or complete withering is achieved) | – | 5 (Growth inhibition effect is equal to or greater than 90%, or complete withering is achieved) | 5 (Growth inhibition effect is equal to or greater than 90%, or complete withering is achieved)
6 | CC(c1c(F)cccc1OCC(F)(F)C(F)F)S(=O)(=O)c1ncc(Cl)s1 (stereo not shown) [Compound 1C-148] | 5 (Growth inhibition effect is equal to or greater than 90%, or complete withering is achieved) | 5 (Growth inhibition effect is equal to or greater than 90%, or complete withering is achieved) | – | 5 (Growth inhibition effect is equal to or greater than 90%, or complete withering is achieved) | 5 (Growth inhibition effect is equal to or greater than 90%, or complete withering is achieved)
7 | O=S(=O)(Cc1c(F)cccc1OC(F)F)c1ncc(Br)s1 [Compound 1C-153] | 5 (Growth inhibition effect is equal to or greater than 90%, or complete withering is achieved) | 5 (Growth inhibition effect is equal to or greater than 90%, or complete withering is achieved) | – | 5 (Growth inhibition effect is equal to or greater than 90%, or complete withering is achieved) | 5 (Growth inhibition effect is equal to or greater than 90%, or complete withering is achieved)
8 | O=S(=O)(Cc1c(Cl)cccc1OC(F)F)c1ncc(Br)s1 [Compound 1C-154] | 5 (Growth inhibition effect is equal to or greater than 90%, or complete withering is achieved) | 5 (Growth inhibition effect is equal to or greater than 90%, or complete withering is achieved) | – | 5 (Growth inhibition effect is equal to or greater than 90%, or complete withering is achieved) | 5 (Growth inhibition effect is equal to or greater than 90%, or complete withering is achieved)
9 | O=S(=O)(Cc1c(F)ccc(F)c1OC(F)F)c1ncc(Br)s1 [Compound 1C-155] | 5 (Growth inhibition effect is equal to or greater than 90%, or complete withering is achieved) | 5 (Growth inhibition effect is equal to or greater than 90%, or complete withering is achieved) | – | 5 (Growth inhibition effect is equal to or greater than 90%, or complete withering is achieved) | 5 (Growth inhibition effect is equal to or greater than 90%, or complete withering is achieved)
10 | O=S(=O)(Cc1c(F)cc(F)cc1OC(F)F)c1ncc(Br)s1 [Compound 1C-156] | 5 (Growth inhibition effect is equal to or greater than 90%, or complete withering is achieved) | 5 (Growth inhibition effect is equal to or greater than 90%, or complete withering is achieved) | – | 5 (Growth inhibition effect is equal to or greater than 90%, or complete withering is achieved) | 5 (Growth inhibition effect is equal to or greater than 90%, or complete withering is achieved)
11 | O=S(=O)(Cc1c(OC(F)F)ccc(Cl)c1F)c1ncc(Br)s1 [Compound 1C-157] | 5 (Growth inhibition effect is equal to or greater than 90%, or complete withering is achieved) | 5 (Growth inhibition effect is equal to or greater than 90%, or complete withering is achieved) | – | 5 (Growth inhibition effect is equal to or greater than 90%, or complete withering is achieved) | 5 (Growth inhibition effect is equal to or greater than 90%, or complete withering is achieved)
12 | O=S(=O)(Cc1c(OCC(F)(F)F)cccc1C(F)(F)F)c1ncc(Br)s1 [Compound 1C-162] | 5 (Growth inhibition effect is equal to or greater than 90%, or complete withering is achieved) | 5 (Growth inhibition effect is equal to or greater than 90%, or complete withering is achieved) | – | 5 (Growth inhibition effect is equal to or greater than 90%, or complete withering is achieved) | 5 (Growth inhibition effect is equal to or greater than 90%, or complete withering is achieved)
13 | O=S(=O)(Cc1c(F)cccc1OCC(F)(F)C(F)F)c1ncc(Br)s1 [Compound 1C-164] | 5 (Growth inhibition effect is equal to or greater than 90%, or complete withering is achieved) | 5 (Growth inhibition effect is equal to or greater than 90%, or complete withering is achieved) | – | 5 (Growth inhibition effect is equal to or greater than 90%, or complete withering is achieved) | 5 (Growth inhibition effect is equal to or greater than 90%, or complete withering is achieved)
14 | CC(c1c(F)cccc1OCC(F)(F)C(F)F)S(=O)(=O)c1ncc(Br)s1 (stereo not shown) [Compound 1C-165] | 5 (Growth inhibition effect is equal to or greater than 90%, or complete withering is achieved) | 5 (Growth inhibition effect is equal to or greater than 90%, or complete withering is achieved) | – | 3 (Growth inhibition effect equal to or greater than 50%, and less than 70%) | 5 (Growth inhibition effect is equal to or greater than 90%, or complete withering is achieved)
